# Values of other authors as cited in US20220370511A1, “METHODS AND COMPOSITIONS FOR ENHANCING OVERALL HEALTH AND LONGEVITY IN MAMMALS” (MYOS CORP., priority 2019, published 2022).
# Assays:
# [1] = dose of 300 mg/kg/day
# NAD+ metabolism = conditions: chronic supplementation, healthy middle-aged and older adults
# [2] = chronic supplementation, healthy middle-aged and older adults
structure (smiles),measurement,setting,value
NC(=O)c1ccc[n+]([C@@H]2O[C@H](CO)[C@@H](O)[C@H]2O)c1 [nicotinamide riboside],adverse effects related to nicotinamide riboside,[1],absent
same,stimulation of NAD+ metabolism,NAD+ metabolism,effectively stimulated
same,tolerability,[2],well tolerated
